Test results: ChEMBL document CHEMBL3885881, “DrugMatrix”

Species on record: Rattus norvegicus
Assay: DrugMatrix - Regimen: Daily Repeat
Assay type: toxicity, organism-based, Sprague-Dawley
Set-up: regimen Daily Repeat, gender Male, age 6-8 weeks
Details: in vivo, po, route oral GAVAGE, vehicle 100 % WATER; for ABSOLUTE BASOPHIL / ABSOLUTE EOSINOPHIL / ABSOLUTE LYMPHOCYTE / ABSOLUTE MONOCYTE / ABSOLUTE SEGMENTED NEUTROPHIL / BASOPHIL / EOSINOPHIL / ERYTHROCYTE COUNT / HEMATOCRIT / HEMOGLOBIN / LEUKOCYTE COUNT / LYMPHOCYTE / MEAN CORPUSCULAR HEMOGLOBIN / MEAN CORPUSCULAR HEMOGLOBIN CONCENTRATION / MEAN CORPUSCULAR VOLUME / MONOCYTE / NEUTROPHIL / NUCLEATED RED BLOOD CELLS / PLATELET COUNT: tissue Blood; for ALANINE AMINOTRANSFERASE / ALBUMIN / ALKALINE PHOSPHATASE / ASPARTATE AMINOTRANSFERASE / BLOOD UREA NITROGEN / CARBON DIOXIDE / CHLORIDE / CHOLESTEROL / CREATINE PHOSPHOKINASE / CREATININE / GLUCOSE / LACTATE DEHYDROGENASE / LIPASE / PHOSPHORUS / POTASSIUM / SODIUM / TOTAL BILIRUBIN / TOTAL PROTEIN / URIC ACID: tissue Plasma
[1] = 30 mg/kg, 72 h, dose level Low, time 3 day
[2] = 30 mg/kg, 120 h, dose level Low, time 5 day
[3] = 3000 mg/kg, 72 h, dose level High, time 3 day
[4] = 3000 mg/kg, 120 h, dose level High, time 5 day

SMILES: O=C(O)CC(O)(CC(=O)O)C(=O)O [CITRIC ACID]
- ABSOLUTE BASOPHIL [1]: 0 CELLS/uL
- ABSOLUTE EOSINOPHIL [1]: 0 CELLS/uL
- ABSOLUTE LYMPHOCYTE [1]: 12691.33 CELLS/uL
- ABSOLUTE MONOCYTE [1]: 367.33 CELLS/uL
- ABSOLUTE SEGMENTED NEUTROPHIL [1]: 908 CELLS/uL
- BASOPHIL [1]: 0%
- EOSINOPHIL [1]: 0%
- ERYTHROCYTE COUNT [1]: 5.83 x10E6/uL
- HEMATOCRIT [1]: 37%
- HEMOGLOBIN [1]: 14.67 G/DL
- LEUKOCYTE COUNT [1]: 13.97 x10E3/uL
- LYMPHOCYTE [1]: 91%
- MEAN CORPUSCULAR HEMOGLOBIN [1]: 25.17 pg
- MEAN CORPUSCULAR HEMOGLOBIN CONCENTRATION [1]: 39.67 G/DL
- MEAN CORPUSCULAR VOLUME [1]: 63.43 fL
- MONOCYTE [1]: 2.67%
- NEUTROPHIL [1]: 6.33%
- NUCLEATED RED BLOOD CELLS [1]: 0 /100WBC
- PLATELET COUNT [1]: 1121.33 x10E3/uL
- ALANINE AMINOTRANSFERASE [1]: 54.67 u/L
- ALBUMIN [1]: 4.2 G/DL
- ALKALINE PHOSPHATASE [1]: 442.33 u/L
- ASPARTATE AMINOTRANSFERASE [1]: 93.33 u/L
- BLOOD UREA NITROGEN [1]: 13.33 mg/dL
- CARBON DIOXIDE [1]: 23 mmol/L
- CHLORIDE [1]: 102.33 MEQ/L
- CHOLESTEROL [1]: 85.67 mg/dL
- CREATINE PHOSPHOKINASE [1]: 514.33 u/L
- CREATININE [1]: 0.18 mg/dL
- GLUCOSE [1]: 184.33 mg/dL
- LACTATE DEHYDROGENASE [1]: 173 u/L
- LIPASE [1]: 9.67 u/L
- PHOSPHORUS [1]: 12.77 mg/dL
- POTASSIUM [1]: 6.46 MEQ/L
- SODIUM [1]: 146.53 MEQ/L
- TOTAL BILIRUBIN [1]: 0.2 mg/dL
- TOTAL PROTEIN [1]: 5.97 G/DL
- URIC ACID [1]: 2.5 mg/dL
- ABSOLUTE BASOPHIL [2]: 0 CELLS/uL
- ABSOLUTE EOSINOPHIL [2]: 0 CELLS/uL
- ABSOLUTE LYMPHOCYTE [2]: 16594.33 CELLS/uL
- ABSOLUTE MONOCYTE [2]: 186.67 CELLS/uL
- ABSOLUTE SEGMENTED NEUTROPHIL [2]: 1885.67 CELLS/uL
- BASOPHIL [2]: 0%
- EOSINOPHIL [2]: 0%
- ERYTHROCYTE COUNT [2]: 5.64 x10E6/uL
- HEMATOCRIT [2]: 37.07%
- HEMOGLOBIN [2]: 14.63 G/DL
- LEUKOCYTE COUNT [2]: 18.67 x10E3/uL
- LYMPHOCYTE [2]: 88.67%
- MEAN CORPUSCULAR HEMOGLOBIN [2]: 25.97 pg
- MEAN CORPUSCULAR HEMOGLOBIN CONCENTRATION [2]: 39.47 G/DL
- MEAN CORPUSCULAR VOLUME [2]: 65.7 fL
- MONOCYTE [2]: 1%
- NEUTROPHIL [2]: 10.33%
- NUCLEATED RED BLOOD CELLS [2]: 0 /100WBC
- PLATELET COUNT [2]: 1295.33 x10E3/uL
- ALANINE AMINOTRANSFERASE [2]: 48 u/L
- ALBUMIN [2]: 4.2 G/DL
- ALKALINE PHOSPHATASE [2]: 374.67 u/L
- ASPARTATE AMINOTRANSFERASE [2]: 80.67 u/L
- BLOOD UREA NITROGEN [2]: 18 mg/dL
- CARBON DIOXIDE [2]: 23 mmol/L
- CHLORIDE [2]: 103.67 MEQ/L
- CHOLESTEROL [2]: 77 mg/dL
- CREATINE PHOSPHOKINASE [2]: 316.33 u/L
- CREATININE [2]: 0.18 mg/dL
- GLUCOSE [2]: 154.33 mg/dL
- LACTATE DEHYDROGENASE [2]: 396.33 u/L
- LIPASE [2]: 10.33 u/L
- PHOSPHORUS [2]: 13.53 mg/dL
- POTASSIUM [2]: 6.74 MEQ/L
- SODIUM [2]: 147.27 MEQ/L
- TOTAL BILIRUBIN [2]: 0.2 mg/dL
- TOTAL PROTEIN [2]: 6.03 G/DL
- URIC ACID [2]: 1.4 mg/dL
- ABSOLUTE BASOPHIL [3]: 0 CELLS/uL
- ABSOLUTE EOSINOPHIL [3]: 0 CELLS/uL
- ABSOLUTE LYMPHOCYTE [3]: 12922.33 CELLS/uL
- ABSOLUTE MONOCYTE [3]: 727.33 CELLS/uL
- ABSOLUTE SEGMENTED NEUTROPHIL [3]: 1850.33 CELLS/uL
- BASOPHIL [3]: 0%
- EOSINOPHIL [3]: 0%
- ERYTHROCYTE COUNT [3]: 5.42 x10E6/uL
- HEMATOCRIT [3]: 33.17%
- HEMOGLOBIN [3]: 13.3 G/DL
- LEUKOCYTE COUNT [3]: 15.5 x10E3/uL
- LYMPHOCYTE [3]: 83.67%
- MEAN CORPUSCULAR HEMOGLOBIN [3]: 24.53 pg
- MEAN CORPUSCULAR HEMOGLOBIN CONCENTRATION [3]: 40.1 G/DL
- MEAN CORPUSCULAR VOLUME [3]: 61.2 fL
- MONOCYTE [3]: 4.67%
- NEUTROPHIL [3]: 11.67%
- NUCLEATED RED BLOOD CELLS [3]: 0 /100WBC
- PLATELET COUNT [3]: 1290.67 x10E3/uL
- ALANINE AMINOTRANSFERASE [3]: 49.67 u/L
- ALBUMIN [3]: 4.17 G/DL
- ALKALINE PHOSPHATASE [3]: 428.33 u/L
- ASPARTATE AMINOTRANSFERASE [3]: 78.33 u/L
- BLOOD UREA NITROGEN [3]: 15.67 mg/dL
- CARBON DIOXIDE [3]: 26.67 mmol/L
- CHLORIDE [3]: 103 MEQ/L
- CHOLESTEROL [3]: 70.33 mg/dL
- CREATINE PHOSPHOKINASE [3]: 223 u/L
- CREATININE [3]: 0.2 mg/dL
- GLUCOSE [3]: 155 mg/dL
- LACTATE DEHYDROGENASE [3]: 102.33 u/L
- LIPASE [3]: 9.67 u/L
- PHOSPHORUS [3]: 12.67 mg/dL
- POTASSIUM [3]: 6.48 MEQ/L
- SODIUM [3]: 145.77 MEQ/L
- TOTAL BILIRUBIN [3]: 0.2 mg/dL
- TOTAL PROTEIN [3]: 5.53 G/DL
- URIC ACID [3]: 1.37 mg/dL
- ABSOLUTE BASOPHIL [4]: 0 CELLS/uL
- ABSOLUTE EOSINOPHIL [4]: 62.33 CELLS/uL
- ABSOLUTE LYMPHOCYTE [4]: 16836 CELLS/uL
- ABSOLUTE MONOCYTE [4]: 0 CELLS/uL
- ABSOLUTE SEGMENTED NEUTROPHIL [4]: 2301.67 CELLS/uL
- BASOPHIL [4]: 0%
- EOSINOPHIL [4]: 0.33%
- ERYTHROCYTE COUNT [4]: 5.65 x10E6/uL
- HEMATOCRIT [4]: 36.43%
- HEMOGLOBIN [4]: 14.37 G/DL
- LEUKOCYTE COUNT [4]: 19.2 x10E3/uL
- LYMPHOCYTE [4]: 87.67%
- MEAN CORPUSCULAR HEMOGLOBIN [4]: 25.5 pg
- MEAN CORPUSCULAR HEMOGLOBIN CONCENTRATION [4]: 39.47 G/DL
- MEAN CORPUSCULAR VOLUME [4]: 64.63 fL
- MONOCYTE [4]: 0%
- NEUTROPHIL [4]: 12%
- NUCLEATED RED BLOOD CELLS [4]: 1 /100WBC
- PLATELET COUNT [4]: 1284.33 x10E3/uL
- ALANINE AMINOTRANSFERASE [4]: 50 u/L
- ALBUMIN [4]: 4.2 G/DL
- ALKALINE PHOSPHATASE [4]: 416.67 u/L
- ASPARTATE AMINOTRANSFERASE [4]: 71.67 u/L
- BLOOD UREA NITROGEN [4]: 16.67 mg/dL
- CARBON DIOXIDE [4]: 23.67 mmol/L
- CHLORIDE [4]: 102 MEQ/L
- CHOLESTEROL [4]: 77 mg/dL
- CREATINE PHOSPHOKINASE [4]: 254.67 u/L
- CREATININE [4]: 0.2 mg/dL
- GLUCOSE [4]: 151 mg/dL
- LACTATE DEHYDROGENASE [4]: 91.33 u/L
- LIPASE [4]: 10.33 u/L
- PHOSPHORUS [4]: 13.03 mg/dL
- POTASSIUM [4]: 6.54 MEQ/L
- SODIUM [4]: 144.77 MEQ/L
- TOTAL BILIRUBIN [4]: 0.23 mg/dL
- TOTAL PROTEIN [4]: 5.93 G/DL
- URIC ACID [4]: 1.57 mg/dL
